In publication PMC5793061, “Functional Expression and Characterization of the Recombinant N-Acetyl-Glucosamine/N-Acetyl-Galactosamine-Specific Marine Algal Lectin BPL3” (Marine Drugs, 2018):

Columns and labels:
Type in all cases: binding
native BPL3 [1] = target: T1, native BPL3 (Bryopsis plumosa, UniProt A0A1J0CRG2); assay: glycan microarray, biotinylated lectin, Cy3-streptavidin; settings: 50 μg/mL lectin; glycan immobilised through spacer
T1 construct: native purification from alga by GalNAc-agarose, eluted with GlcNAc; not pure, BPL4 band seen; may consist of 2-6 domains
T1 sequence (A0A1J0CRG2 29-134): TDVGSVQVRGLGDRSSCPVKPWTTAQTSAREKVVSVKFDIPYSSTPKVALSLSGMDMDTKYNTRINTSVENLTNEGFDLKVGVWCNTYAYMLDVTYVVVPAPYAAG
Excerpt: glycan microarray, biotinylated lectin, Cy3-streptavidin on native BPL3

rD2BPL3 [2] = target: T2, rD2BPL3 (Bryopsis plumosa, UniProt A0A1J0CRG2); assay: as above; settings: 50 μg/mL lectin; glycan immobilised through spacer
T2 construct: artificial tandem repeat of two identical BPL3 domains in one chain, 4-residue linker
T2 sequence (A0A1J0CRG2 29-134): T1 sequence (A0A1J0CRG2 29-134)
Excerpt: glycan microarray, biotinylated lectin, Cy3-streptavidin on rD2BPL3

native BPL3 [3] = target: T1, native BPL3; assay: inhibition of hemagglutination, human erythrocytes; settings: PBS, 4 HU lectin, human type B erythrocytes, two-fold dilutions
Excerpt: inhibition of hemagglutination, human erythrocytes on native BPL3

rD2BPL3 [4] = target: T2, rD2BPL3; assay: inhibition of hemagglutination, human erythrocytes; settings: PBS, 4 HU lectin, human type B erythrocytes, two-fold dilutions
Excerpt: inhibition of hemagglutination, human erythrocytes on rD2BPL3

Row | Compound | RFU (Normalized) / Native BPL3 (native BPL3 [1]) [RFU] | RFU (Normalized) / rD2BPL3 (rD2BPL3 [2]) [RFU] | Minimum Inhibitory Concentration / Native BPL3 (native BPL3 [3]) [mM] | Minimum Inhibitory Concentration / rD2BPL3 (rD2BPL3 [4]) [mM]
1 | α-Man-Sp [compound 3] | 1025 | 1322 | – | –
2 | CC(=O)N[C@H]1C(O)O[C@H](CO)[C@@H](O)[C@@H]1O (stereo partly drawn) [N-acetyl-D-glucosamine] | – | – | 125 | 62.5
3 | α-Fuc-Sp [compound 4] | – | 1313 | – | –
4 | GlcNAc-β-1,2-Man-α-Sp [compound 45] | – | 1290 | – | –
5 | CC(=O)N[C@H]1C(O)O[C@H](CO)[C@H](O)[C@@H]1O (stereo partly drawn) [N-acetyl-D-galactosamine] | – | – | 62.5 | 31.25
6 | D-Cellose-β-Sp1 [compound 87] | – | 1119 | – | –
